Assay results published in patent US20260184663A1, “INDENE COMPOUNDS, PHARMACEUTICAL COMPOSITIONS THEREOF, AND THEIR THERAPEUTIC APPLICATIONS” (NucMito Pharmaceuticals co. Ltd., priority 2022, published 2026).

Assays:
Format in all cases: cell-based
[1] = test system: alpha-smooth muscle actin (α-SMA); assay: Inhibition of TGF-β induced expression of alpha-smooth muscle actin (α-SMA) in CFSC cells (western blot); conditions: compound at 10 μM, TGF-β (10 ng/mL), 24 hours, band intensity vs TGF-β only
Procedure, shortened: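 CFSC hepatic stellate cells in serum-free DMEM treated 24 h at 37 °C with compound at 10 μM plus TGF-β (10 ng/mL). α-SMA measured by Western blot with β-actin, ECL detection, densitometry. Percent inhibition is decrease in band intensity versus TGF-β-only cells.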

[2] = test system: MDA-MB-231 (breast cancer); assay: Antiproliferative activity (CCK-8 cell viability), MDA-MB-231; conditions: Homo sapiens, 72 h; for inhibition at 3.3 µM: Compound concentration: 3.3 μM; for inhibition at 3.3 µM / inhibition at 10 µM: read-out: Antiproliferative activity in cancerous cells, MDA-MB-231 (inhibition of cell growth); for inhibition at 10 µM: Compound concentration: 10 μM
Procedure, shortened: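 MDA-MB-231 breast cancer cells, grown in DMEM with 10% FBS, were plated in 96-well plates at 2,000-5,000 cells/well. Once attached, they were exposed to compound and incubated at 37° C. for 72 h. Viability was then measured with CCK-8 (10 μL per well, 4 h at 37° C.) by absorbance at 450 nm, relative to DMSO vehicle wells.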

[3] = test system: HepG2 (liver cancer); assay: Antiproliferative activity (CCK-8 cell viability), HepG2; conditions: Homo sapiens, 72 h; for inhibition at 3.3 µM: Compound concentration: 3.3 μM; for inhibition at 3.3 µM / inhibition at 10 µM: read-out: Antiproliferative activity in cancerous cells, HepG2 (inhibition of cell growth); for inhibition at 10 µM: Compound concentration: 10 μM
Procedure, shortened: (§1)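 Cells grown in DMEM (HepG2, SW480), MEM (HeLa) or F-12K (A549), each with 10% FBS, then exposed to compound at 3.3, 10 or 30 μM for 72 h at 37 °C. CCK-8 absorbance at 450 nm; viability expressed as percent of DMSO-treated cells, graded as growth inhibition bands.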

[4] = test system: SW480 (colon cancer); assay: Antiproliferative activity (CCK-8 cell viability), SW480; conditions: Homo sapiens, 72 h; for inhibition at 3.3 µM: Compound concentration: 3.3 μM; for inhibition at 3.3 µM / inhibition at 10 µM: read-out: Antiproliferative activity in cancerous cells, SW480 (inhibition of cell growth); for inhibition at 10 µM: Compound concentration: 10 μM; for inhibition at 30 µM: Compound concentration: 30 μM, read-out: Antiproliferative activity in cancerous cells, SW480
Procedure, shortened: as §1

[5] = test system: B16F10 (malignant melanoma); assay: Antiproliferative activity (CCK-8 cell viability), B16F10; conditions: Mus musculus, 72 h, read-out: Antiproliferative activity in cancerous cells, B16F10 (inhibition of cell growth); for inhibition at 3.3 µM: B16-F10, Compound concentration: 3.3 μM; for inhibition at 10 µM: B16-F10, Compound concentration: 10 μM
Procedure, shortened: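 B16F10 melanoma cells grown in DMEM with 10% FBS were plated in 96-well plates at 2,000-5,000 cells/well. After attachment they were exposed to compound in medium for 72 h at 37° C. CCK-8 solution (10 μL) was then added, and after 4 h at 37° C absorbance was read at 450 nm.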

[6] = test system: A431 (epidermoid carcinoma); assay: Antiproliferative activity (CCK-8 cell viability), A431; conditions: Homo sapiens, 72 h, read-out: Antiproliferative activity in cancerous cells, A431 (inhibition of cell growth); for inhibition at 3.3 µM: A-431, Compound concentration: 3.3 μM; for inhibition at 10 µM: A-431, Compound concentration: 10 μM
Procedure, shortened: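 A431 epidermoid carcinoma cells grown in DMEM with 10% FBS were plated at 2,000-5,000 cells/well in 96-well plates. After attachment they were exposed to compound at 3.3 μM, 10 μM, or 30 μM for 72 h at 37° C. Viability was then assessed by CCK-8 against DMSO vehicle-treated wells.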

[7] = test system: A549 (lung adenocarcinoma); assay: Antiproliferative activity (CCK-8 cell viability), A549; conditions: Homo sapiens, 72 h; for inhibition at 3.3 µM: Compound concentration: 3.3 μM; for inhibition at 3.3 µM / inhibition at 10 µM: read-out: Antiproliferative activity in cancerous cells, A549 (inhibition of cell growth); for inhibition at 10 µM: Compound concentration: 10 μM
Procedure, shortened: as §1

[8] = test system: HeLa (cervical cancer); assay: Antiproliferative activity (CCK-8 cell viability), HeLa; conditions: Homo sapiens, 72 h; for inhibition at 3.3 µM: Compound concentration: 3.3 μM; for inhibition at 3.3 µM / inhibition at 10 µM: read-out: Antiproliferative activity in cancerous cells, HELA (inhibition of cell growth); for inhibition at 10 µM: Compound concentration: 10 μM; for inhibition at 30 µM: Compound concentration: 30 μM, read-out: Antiproliferative activity in cancerous cells, HELA
Procedure, shortened: as §1

Row | SMILES | inhibition at 10 µM [1] [%] | inhibition at 3.3 µM [2] [%] | inhibition at 10 µM [2] [%] | inhibition at 3.3 µM [3] [%] | inhibition at 10 µM [3] [%] | inhibition at 3.3 µM [4] [%] | inhibition at 10 µM [4] [%] | inhibition at 30 µM [4] [%] | inhibition at 3.3 µM [5] [%] | inhibition at 10 µM [5] [%] | inhibition at 3.3 µM [6] [%] | inhibition at 10 µM [6] [%] | inhibition at 3.3 µM [7] [%] | inhibition at 10 µM [7] [%] | inhibition at 3.3 µM [8] [%] | inhibition at 10 µM [8] [%] | inhibition at 30 µM [8] [%] | inhibition at 30 µM ([2]; Compound concentration: 30 μM, read-out: Antiproliferative activity in cancerous cells, MDA-MB-231) [%] | inhibition at 30 µM ([3]; Compound concentration: 30 μM, read-out: Antiproliferative activity in cancerous cells, HepG2) [%] | inhibition at 30 µM ([7]; Compound concentration: 30 μM, read-out: Antiproliferative activity in cancerous cells, A549) [%]
1 | CC1=C(CC(=O)O)c2ccc(F)cc2/C1=C\c1ccc(Oc2ccc(F)cc2)cc1 [C3, (Z)-2-(6-Fluoro-1-(4-(4-fluorophenoxy)benzylidene)-2-methyl-1H-inden-3-yl)-acetic acid] | < 30 | < 30 | 30 to 50 | ≥ 50 | ≥ 50 | < 30 | < 30 | < 30 | < 30 | 30 to 50 | ≥ 50 | ≥ 50 | 30 to 50 | 30 to 50 | < 30 | < 30 | < 30 |  |  | 
2 | CC1=C(CC(=O)O)c2cc(C)ccc2/C1=C\c1ccc(Oc2ccc(F)cc2)cc1 [C4, (Z)-2-(1-(4-(4-Fluorophenoxy)benzylidene)-2,5-dimethyl-1H-inden-3-yl)acetic acid] | > 80 | < 30 | 30 to 50 | 30 to 50 | ≥ 50 | < 30 | < 30 | 30 to 50 | < 30 | < 30 | < 30 | 30 to 50 | < 30 | 30 to 50 | < 30 | ≥ 50 |  |  |  | 
3 | CCc1ccc2c(c1)C(CC(=O)O)=C(C)/C2=C/c1ccc(Oc2ccc(F)cc2)cc1 [C5, (Z)-2-(5-Ethyl-1-(4-(4-fluorophenoxy)benzylidene)-2-methyl-1H-inden-3-yl)-acetic acid] | > 80 | < 30 | ≥ 50 | ≥ 50 | ≥ 50 | < 30 | < 30 |  | < 30 | ≥ 50 | ≥ 50 | ≥ 50 | 30 to 50 | 30 to 50 | < 30 | ≥ 50 |  |  |  | 
4 | CCC1=C(CC(=O)O)c2cc(F)ccc2/C1=C\c1ccc(Oc2ccc(F)cc2)cc1 [C6, (Z)-2-(2-Ethyl-5-fluoro-1-(4-(4-fluorophenoxy)benzylidene)-1H-inden-3-yl)acetic acid] | > 80 | ≥ 50 | ≥ 50 | < 30 | 30 to 50 | ≥ 50 | ≥ 50 |  | 30 to 50 | ≥ 50 | 30 to 50 | ≥ 50 | 30 to 50 | ≥ 50 | ≥ 50 | ≥ 50 |  |  |  | 
5 | O=C(O)CC1=C(CC2CCCC2)/C(=C/c2ccc(Oc3ccc(F)cc3)cc2)c2ccc(F)cc21 [C7, (Z)-2-(2-(Cyclopentylmethyl)-5-fluoro-1-(4-(4-fluorophenoxy)benzylidene)-1H-inden-3-yl)acetic acid] | > 80 | ≥ 50 | ≥ 50 | 30 to 50 | ≥ 50 | ≥ 50 | ≥ 50 |  | ≥ 50 | ≥ 50 | ≥ 50 | ≥ 50 | ≥ 50 | ≥ 50 | ≥ 50 | ≥ 50 |  |  |  | 
6 | CCCC1=C(CC(=O)O)c2cc(F)ccc2/C1=C\c1ccc(Oc2ccc(F)cc2)cc1 [C8, (Z)-2-(5-Fluoro-1-(4-(4-fluorophenoxy)benzylidene)-2-propyl-1H-inden-3-yl)-acetic acid] | > 80 | ≥ 50 | ≥ 50 | ≥ 50 | ≥ 50 | < 30 | ≥ 50 |  | 30 to 50 | ≥ 50 | < 30 | ≥ 50 | ≥ 50 | ≥ 50 | ≥ 50 | ≥ 50 |  |  |  | 
7 | CC1=C(CC(=O)O)c2c(F)cccc2/C1=C\c1ccc(Oc2ccc(F)cc2)cc1 [C9, (Z)-2-(4-Fluoro-1-(4-(4-fluorophenoxy)benzylidene)-2-methyl-1H-inden-3-yl)-acetic acid] | < 30 | 30 to 50 | 30 to 50 | 30 to 50 | < 30 | < 30 | < 30 | < 30 | ≥ 50 | ≥ 50 | 30 to 50 | 30 to 50 | < 30 | < 30 | < 30 | < 30 | < 30 | 30 to 50 | 30 to 50 | < 30
8 | CC1=C(CC(=O)O)c2ccc(F)c(F)c2/C1=C\c1ccc(Oc2ccc(F)cc2)cc1 [C10, (Z)-2-(6,7-Difluoro-1-(4-(4-fluorophenoxy)benzylidene)-2-methyl-1H-inden-3-yl)acetic acid] | > 80 | 30 to 50 | ≥ 50 | 30 to 50 | 30 to 50 | < 30 | ≥ 50 |  | 30 to 50 | ≥ 50 | < 30 | ≥ 50 | < 30 | 30 to 50 | ≥ 50 | ≥ 50 |  |  |  | 
9 | O=C(O)CC1=C(Cc2ccc(C(F)(F)F)cc2)/C(=C/c2ccc(Oc3ccc(F)cc3)cc2)c2ccc(F)cc21 [C11, (Z)-2-(5-Fluoro-1-(4-(4-fluorophenoxy)benzylidene)-2-(4-(trifluoromethyl)-benzyl)-1H-inden-3-yl)acetic acid] | > 80 | ≥ 50 | ≥ 50 | ≥ 50 | ≥ 50 | ≥ 50 | ≥ 50 |  | ≥ 50 | ≥ 50 | ≥ 50 | ≥ 50 | ≥ 50 | ≥ 50 | ≥ 50 | ≥ 50 |  |  |  | 
